# Measured values published in US20240352402A1, “ENGINEERED BACTERIA FOR BIOSYNTHESIS OF PEPTIDE-BASED QUORUM SENSING INHIBITORS” (Wisconsin Alumni Research Foundation, priority 2023, published 2024).
# System: S. aureus agr quorum sensing system (agr specificity groups I, II, III and IV)
# Assay: Staphylococcus aureus agr reporter (antagonism) assay with pDB59 YFP reporter strains
# Format: cell-based
# Conditions: high concentrations, WT supernatant as vehicle control
# Procedure: Supernatant samples were lyophilized in a FreeZone Freeze Dryer (Labconco). Fluorescence (EX 500 nm/EM 540 nm) and OD600 were read on a Synergy™ 2 plater reader (BioTek). Data was analyzed using Prism 9 software (GraphPad by Dotmatics).
# In both P. megaterium and B. subtilis strains produced in Example 1, AIP production was induced by diluting overnight cultures 1:100 in LB containing 1% xylose. After 8 hours the cultures were centrifuged, and the supernatant was purified with a 0.22 μm filter. The supernatant was then lyophilized and reconstituted in sterile milli-Q water at 10× the original concentration.
# Groups I-IV S. aureus strains containing the pDB59 plasmid were used to conduct agr antagonism assays. Assays were conducted as previously described,^1 with the following adjustments: 10×WT P. megaterium or B. subtilis supernatant was used as a vehicle control instead of DMSO and 20 μl of sample/vehicle control and 180 μl of 1:50 overnight S. aureus in brain heart infusion (BHI) growth medium was added to each well for inducible strains P. megaterium (FIG. 2) and B. subtilis (FIG. 3) from Example 1 and constitutive strain B. subtilis (FIG. 5) from Example 2.
substance,measurement,setting,value
AIP-III D4A,inhibition of agr activity in reporter assay,"lyophilized B. subtilis supernatant (10x), n=9, FIG. 3",inhibit agr
same,inhibition of agr activity in reporter assay,"lyophilized P. megaterium supernatant (10x), n=3, FIG. 2",inhibit agr
